Laboratory results from patent US6683079B2, “3-(amino-or aminoalkyl) pyridinone derivatives and their use for the treatment of HIV related diseases” (Centre National de la Recherche Scientifique, priority 1998, dated 2004).

What was measured:
HIV-1 strain IIIB = assay: Retrovirucidal effect on HIV-1 strain IIIB (Table 3); assay type: cell-based; settings: pIC50=-log IC50, IC50 in M
Procedure: (§1) HIV-1 viral suspensions were obtained by coculture of MT4 cells and H9 cells chronically infected by HIV-ILai isolate. 200 μl of a cell supernatant containing viral particles (HIV-ILai: 100 TCID50) were incubated at room temperature with various concentrations of different inhibitors. After 3 hours, virions were washed through 0.02 μm anopore membrane in 1.5 mL Vectaspin tube (Whatman) for 10 minutes at 5 000 g. Each of the three subsequent washes was performed in the same conditions after the viral concentrate was refilled with 500 μL of RPMI medium. Then, the viral concentrate was readjusted to the initial volume with RPMI plus 10% foetal calf serum (FCS). The residual infectivity was assayed on P4 cells as described by CHARNEAU et al. (1994, J. Mol. Biol., 241, 651-662). Briefly, P4 cells were plated using 100 μL of DMEM medium plus 10% FCS in 96 plate multi-wells at 20×10^5 cells per mL. After overnight incubation at 37° C., the supernatant was discarded and the viral preparation (200 μL) was added. One day later the wells were washed three times in PBS. Each well was refilled with 200 μL of a reaction buffer containing 50 mM Tris-HCl pH 8.5, 100 mM 2-mercaptoethanol, 0.05% Triton X-100 and 5 mM 4-methylumbelliferyl β-D-galactopyranoside (MUG). After 3 hours at 37° C., the level of the reaction was measured in a fluorescence microplate reader.
(§2) The retrovirucidal effect of each pyridinone derivative listed in table 3 has been assayed according to the teachings of example 2, excepted that the anti-viral effect has been tested on the two following HIV-1 strains:
a) HIV-1 strain IIIB (see example 2);

HIV-1 strain 103 N = assay: Retrovirucidal effect on HIV-1 strain 103 N (Table 3); assay type: cell-based; settings: HIV-1 strain 103N (RT Lys-103 to Asn mutant); pIC50=-log IC50, IC50 in M
Procedure: as §1, §2
b) HIV-1 strain 103 N which is a mutant strain bearing a point mutation in the reverse transcriptase gene leading to an enzyme wherein the initial Lys-103 residue is replaced for a Asn residue.
The HIV-1 103 N strain has also been described by SAHLBERG et al.,(1998, Antiviral Res., 37 (3): ASS) and BALZARiNI et al. (1996, Antimicrobial Agents and Chemotherapy, 40 (6): 1454-1466).

Compound	HIV1 pIC50 strain IIIB (HIV-1 strain IIIB)	HIV1 pIC50 strain 103N (HIV-1 strain 103 N)
CCc1c(C)[nH]c(=O)c(N)c1Cc1cccc(C(F)(F)F)c1 [Compound 50]	<5	<5
CCc1c(C)[nH]c(=O)c(N(C)C)c1Cc1nccs1 [Compound 66]	7.588	5.72
CCc1c(C)[nH]c(=O)c(N)c1C(O)c1cc(C)cc(C)c1 (centres unmarked) [Compound 6]	5.795	5.026
CCc1c(C)[nH]c(=O)c(N(C)C)c1Cc1cc(C)ccc1C [Compound 37]	6.796	5.729
CCc1c(C)[nH]c(=O)c(N(C)Cc2ccccc2)c1Cc1cc(C)cc(C)c1 [Compound 67]	6.804	4.955
CCc1[nH]c(=O)c(N)c(Cc2cc(C)cc(C)c2)c1C [Compound 27]	5.949	5.098
CCc1c(C)[nH]c(=O)c(N)c1C(=O)c1ccc(OC)c(C)c1 [Compound 168]	4.525	4.806
CCc1c(C)[nH]c(=O)c(N)c1Cc1cccc(C)c1 [Compound 9]	5.373	5.103
CCc1c(C)[nH]c(=O)c(N(C)C)c1Cc1cccc(F)c1 [Compound 42]	8.569	7.18
CCc1c(C)[nH]c(=O)c(N)c1Cc1ccc(-c2ccccc2)cc1 [Compound 49]	<4	<5
CCc1c(C)[nH]c(=O)c(N(C)C)c1Cc1ccc(C)c(C)c1 [Compound 19]	7.447	5.947
CCc1c(C)[nH]c(=O)c(N)c1C(=O)c1cc(C)cc(C)c1 [Compound 2]	6.612	6.64
Cc1cc(C)cc(Cc2cc(CCC(C)C)[nH]c(=O)c2N)c1 [Compound 76]	<5.494	<4
CCc1c(C)[nH]c(=O)c(N(C)C)c1C(O)Cc1cccc(C)c1 (centres unmarked) [Compound 165]	4.354	<4
CCc1c(C)[nH]c(=O)c(N(C)C)c1C(=O)c1cc(C)cc(C)c1 [Compound 35]	8.585	7.987
CCc1c(C)[nH]c(=O)c(N(C)CCCCCO)c1Cc1cc(C)cc(C)c1 [Compound 123]	8.444	6.918
CCc1c(C)[nH]c(=O)c(N(C)CCOC)c1Cc1cc(C)cc(C)c1 [Compound 78]	8.678	7.128
CCc1c(C)[nH]c(=O)c(N(C)C)c1Cc1c(C)cc(C)cc1C [Compound 59]	5.029	<5
CCc1cccc(Cc2c(CC)c(C)[nH]c(=O)c2N)c1 [Compound 98]	5.358	4.978
CCc1c(C)[nH]c(=O)c(N)c1Cc1cccc(F)c1 [Compound 41]	5.131	4.473
CCCNc1c(Cc2cc(C)cc(C)c2)c(CC)c(C)[nH]c1=O [Compound 82]	7.735	5.813
CCOC(=O)Cn1c(C)c(CC)c(Cc2cc(C)cc(C)c2)c(N(C)C)c1=O [Compound 23]	5.254	<4
CCc1c(C)[nH]c(=O)c(N(C)CC)c1C(=O)c1cccc(Br)c1 [Compound 185]	8.745	7.433
CCc1c(C)[nH]c(=O)c(N(C)C)c1Cc1ccccc1Cl [Compound 65]	8.284	6.405
Cc1cc(C)cc(Cc2cc[nH]c(=O)c2N)c1 [Compound 15]	<4.17	4.138
CCc1c(C)[nH]c(=O)c(N(CC)CC)c1Cc1cc(C)cc(C)c1 [Compound 12]	8.022	6.363
CCc1c(C)[nH]c(=O)c(NCc2cc(C)c(C)cc2OC)c1Cc1cc(C)cc(C)c1 [Compound 4]	5.094	<4
CCc1c(C)[nH]c(=O)c(N(C)C)c1Sc1cccc(Br)c1 [Compound 193]	8.481	7.245
